Entries after “also recorded” stand apart in the source; their conditions may differ.
How the values were obtained:
Type in all cases: in vivo, mouse
[1] = test system: retinal neurons; experiment: Retinal neuron morphology and lamina structure after injection (electron microscopy, Nissl, recoverin, syntaxin)
Method: (§1) Mice were anesthetized by intraperitoneal injection of ketamine (62.5 mg/kg) and xylazine (12.5 mg/kg) and transcardially perfused with phosphate buffered saline (PBS) followed by 4% paraformaldehyde in PBS. Retinal flat-mounts or transverse retinal sections (14 μm) were preblocked with PBS containing 3% bovine serum albumin (Sigma-Aldrich, St. Louis, Mo.) and 0.3% Triton X (Sigma-Aldrich) and incubated, first, with primary antibody overnight, and then with secondary antibody for 1 hour at room temperature. The following antibodies were used: Cy3-conjugated monoclonal antibody against GFAP (1:1000; Sigma), Brn-3b (1:200; Santa Cruz Biotechnology; Santa Cruz, Calif.), mouse anti-rhodopsin (1:4000; Rho1D4), chick anti-cone-opsin (1:300), and Cy-2, Cy-3 or Cy-5-conjugated secondary antibody (Jackson ImmunoResearch; West Grove, Pa.). Assessment of morphological integration were quantified by counting EGFP+ cells located outside of transplanted cell clusters in retinal whole-mounts. Statistical significance was determined by either the two tailed student t test or ANOVA.
Mice were sacrificed 3 days after receiving the injection of α-AA (1 μg/μl) or saline as controls by injection of overdose of ketamine/xylazine followed by cervical dislocation, and the eyeballs were dissected, fixed with Karnovsky's fixative (pH 7.4) for 24 h. The quadrants of the eyes that received subretinal injection were dissected and embedded in Epon-Araldite. Semi-thin sections (1-2 μm) were stained with phenylenediamine phase staining. The sections were examined and photographed with a transmission electron microscope (EM410; Philips; Eindhoven, The Netherlands). Ten randomly selected retinal sections of each eye were photographed at 1900× magnification, and all Müller glial nuclei in the photomicrograph were counted.
Retinal sections were examined under electron microscopy, in which Müller glia were identified by their characteristic angular nuclei, dense chromatin and dark perinuclear cytoplasm (FIG. 1e-h). […]

[2] = test system: cone photoreceptor function; experiment: Flicker ERG under cone-isolation conditions in Rho-/- mice; conditions: Rho-/- mice injected subretinally at 6 weeks old, 4 weeks later, vs saline contralateral eye
Method: Mice carrying rhodopsin deficiency (Rho^−/−) were used to determine if injection of alpha-aminoadipate (αAA) is sufficient to induce neuroregeneration from endogenous retinal progenitors, e.g., Muller cells, leading to preservation and restoration of photoreceptor cell function. Light-evoked photoreceptor responses and retinal functions in Rho^−/− mice that received αAA or saline injection were assessed using ERGS and whole cell-attached patch clamp.
To determine if αAA induces functional neuroregeneration in Rho^−/− mice, αAA was injected subretinally into the left eyes of 6 week-old Rho^−/− mice, while their contralateral eyes were injected with saline and served as controls. After a 4 week survival period to allow regeneration of new photoreceptors, mouse ERG was measured in both eyes and then performed immunohistochemistry to identify photoreceptor cells. Rho^−/− mice lack the rod photoreceptor cell component or ERG a-wave. As cones consist of ˜3% of photoreceptors in mice, it is difficult to assess cone action a-wave; therefore, flicker ERG photometry under cone-isolation conditions was used to measure cone functions. […]

[3] = test system: grafted retinal progenitor cells; experiment: Integration of grafted EGFP+ retinal progenitor cells into pretreated wild-type host retina
Method: as §1
At 2 days before transplantation, 2 μl of a solution containing either α-AA (1 μg/μl) or saline (control) was injected unilaterally into the subretinal space of recipient wild-type or Gnat1^−/− mice (>2 months old). The procedure for donor cell preparation was essentially as described by Kinouchi et al, 2003, Nat Neurosci, 6:863-868. Briefly, retinal progenitor cells were isolated from postnatal day 0 (P0) EGFP transgenic mice. […]
If transient disruption of retinal glia with α-AA promotes morphological integration of grafted retinal progenitors in vivo was next investigated. […] Thus, in the following studies, cell transplantation was performed at day 2 after α-AA pretreatment when temporal disruption of residential glial structure by α-AA was detected that effectively ameliorates the host barrier to cell integration and promotes grafted cell migration into the host retina.

[4] = test system: retinal glial cells (GFAP expression); experiment: GFAP immunolabeling of retinal glia after subretinal injection; conditions: adult wild-type mice
Method: as §1, with “The following antibodies were used: Cy3-conjugated monoclonal antibody against GFAP (1:1000; Sigma), Brn-3b (1:200; Santa Cruz Biotechnology; Santa Cruz, Calif.), mouse anti-rhodopsin (1:4000; Rho1D4), chick anti-cone-opsin (1:300), and Cy-2, Cy-3 or Cy-5-conjugated secondary antibody (Jackson ImmunoResearch; West Grove, Pa.).” left out
Retinal astrocytes and Müller glia are central to the homeostatic and metabolic support of retinal neurons; whereas, after injury these cells develop glial scar that forms critical barriers to neuron regeneration and integration by retinal progenitor cells. […] Retinal glial morphology was examined by immunolabeling for glial marker GFAP and assessed the level of GFAP expression by Western blot at day 1-7 post injection. Expression of GFAP is widely detected in the normal mouse retinas (FIG. 1a).

## NC(CCCC(=O)O)C(=O)O (stereo not drawn) [α-AA, alpha-aminoadipate]
[1]; 3 days after subretinal injection
  retinal neuron morphology (electron microscopy): No abnormality in retinal neuron morphology
[1]; day 3 after injection, vs saline-injected controls
  morphology and lamina structure (recoverin, syntaxin immunolabeling): No apparent changes; also recorded: No significant difference
[1]; mouse, in vivo
  neuronal toxicity: No neuronal toxicity
[2]
  ERG b-wave (flicker ERG): sizable b-wave
[3]; transplantation performed after day 5 post treatment
  number of cells repopulated the host retina: drastically diminished
[3]; wild-type hosts, three weeks post transplantation, vs saline-treated or untreated retinas
  increase in number of engrafted cells bearing long neurites (>3 body length): 7-11 fold
[3]; wild-type hosts, transplantation day 2 after pretreatment, three weeks post transplantation, vs saline-treated or untreated retinas
  increase in the number of EGFP+ cells repopulated into the host retina: 3-5 fold
[4]; by day 7 post injection
  GFAP immunostaining at the injection site: reappeared at the injection site
[4]; single subretinal injection 1 μg/μl, 1-3 days post injection
  GFAP expression around the injection site (immunolabeling): effectively eliminated GFAP expression

— patent publication US11622951B2, “Alpha-aminoadipate for treatment of vision loss and restoring sight” (The Schepens Eye Research Institute, Inc., priority 2013, dated 2023)
